Reference: patent publication US20130029970A1 (priority 2009, published 2013)
Where two headings read alike, the source gives them in different places.

Assays:
[1] = target: T1, recombinant human cannabinoid receptor CB2 (Homo sapiens, UniProt P34972); assay: Cannabinoid receptor radioligand binding assay, [3H]-CP 55,940 displacement, hCB2
T1 construct: (cDNA clone) CNR0200000
Summary of the method: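 Membranes from hCB2-transfected cells, prepared by 1000×g then 40,000×g centrifugation, resuspended in 20 mM HEPES pH 7.4, 5 mM MgCl2, 1 mM EDTA, 10% sucrose.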

[2] = target: T2, human CB1 receptors (Homo sapiens, UniProt P21554); assay: cAMP assay in HEK-293 cells, hCB1 agonist; type: cell-based
T2 construct: (cDNA clone) CNR01L000
Summary of the method: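 Stable hCB1 HEK-293 cells suspended in HBSS with 10 mM HEPES and 0.1% fatty acid-free BSA, incubated 30 min at 37° C. with compound plus forskolin (90 uM in the 3× compound solution). Lysed cAMP measured by enzyme-fragment kit; EC50 = 50% inhibition of forskolin-stimulated cAMP (forskolin maximum = 100%), sigmoidal fit.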

[3] = target: T3, human CB2 (hCB2) (Homo sapiens, UniProt P34972); assay: 35S GTPγS binding assay, hCB2 agonist; type: biochemical
T3 construct: (cDNA clone) CNR0200000
Summary of the method: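 Membranes (5 μg) from cells transfected with hCB2 cDNA in pcDNA3.1+ incubated with SPA beads, 0.1 nM [35S]GTPγS and 20 uM GDP in 50 mM HEPES pH 7.4, 100 mM NaCl, 5 mM MgCl2, 0.001% saponin, ± test compound. Incubation 90 min at room temperature; bound label read by scintillation counting.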

[4] = inhibition of forskolin-stimulated cAMP, HEK-293 cells
[5] = inhibition of forskolin-stimulated cAMP, HEK-293 cells, read-out: hCB1 EC50 (cAMP ag)

T2 sequence (P21554 whole entry): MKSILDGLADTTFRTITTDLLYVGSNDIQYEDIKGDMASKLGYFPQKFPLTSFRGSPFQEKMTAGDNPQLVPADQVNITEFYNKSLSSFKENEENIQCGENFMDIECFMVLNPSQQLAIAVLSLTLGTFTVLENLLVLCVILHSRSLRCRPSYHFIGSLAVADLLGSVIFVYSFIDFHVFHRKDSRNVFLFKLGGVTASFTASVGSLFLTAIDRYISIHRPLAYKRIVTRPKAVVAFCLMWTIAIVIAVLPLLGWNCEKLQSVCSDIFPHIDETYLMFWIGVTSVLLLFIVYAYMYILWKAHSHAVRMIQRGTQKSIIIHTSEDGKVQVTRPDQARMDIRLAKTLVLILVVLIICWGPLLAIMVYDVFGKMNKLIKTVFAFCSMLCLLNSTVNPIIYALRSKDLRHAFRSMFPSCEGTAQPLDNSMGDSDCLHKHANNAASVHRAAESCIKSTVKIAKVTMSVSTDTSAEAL
T1 sequence (P34972 whole entry): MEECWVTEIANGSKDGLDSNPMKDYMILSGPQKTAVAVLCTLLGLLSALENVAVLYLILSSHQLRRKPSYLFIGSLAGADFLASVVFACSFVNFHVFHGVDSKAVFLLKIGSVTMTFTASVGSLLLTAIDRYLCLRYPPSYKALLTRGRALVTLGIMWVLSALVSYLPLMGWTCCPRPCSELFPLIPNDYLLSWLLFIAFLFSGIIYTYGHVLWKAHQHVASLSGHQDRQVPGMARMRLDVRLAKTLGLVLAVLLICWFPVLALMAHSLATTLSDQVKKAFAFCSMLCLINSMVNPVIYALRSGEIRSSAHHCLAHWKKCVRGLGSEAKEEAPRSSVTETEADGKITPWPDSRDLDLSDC
T3 sequence (P34972 whole entry): as above

| Structure (SMILES) | IC50 [1] [nM] | hCB1 EC50 (cAMP ag, nM) [2, 4] | EC50 [3] [nM] | EC50 [2, 5] [nM] | EC50 [2] [nM] |
| --- | --- | --- | --- | --- | --- |
| C=Cn1c(C)cc2cc(C(=O)c3cccc(Cl)c3Cl)sc21 [Comp 29] | 1000 to 10000 | NS (NS means “Not Significant,” which means less than 30% agonist activity when compared to the positive control.) | 100 to 1000 |  |  |
| Cc1cc2cc(C(=O)c3cccc(Cl)c3Cl)sc2n1CCN1CCOCC1 [Compound 1, (2,3-dichlorophenyl)(5-methyl-6-(2-morpholinoethyl)-6H-thieno[2,3-b]pyrrol-2-yl)methanone] | < 100 |  | < 100 | > 10000 |  |
| CCCn1c(C)cc2cc(C(=O)c3cccc(Cl)c3Cl)sc21 [Compound 3, (2,3-Dichlorophenyl)(5-methyl-6-propyl-6H-thieno[2,3-b]pyrrol-2-yl)methanone] | 100 to 1000 | NS (NS means “Not Significant,” which means less than 30% agonist activity when compared to the positive control.) | < 100 |  |  |
| Cc1cc2cc(C(=O)c3ccccc3Cl)sc2n1CCN1CCOCC1 [Compound 5, (2-Chlorophenyl)(5-methyl-6-(2-morpholinoethyl)-61-1-thieno[2,3-b]pyrrol-2-yl)methanone] | < 100 |  | < 100 | 100 to 1000 |  |
| Cc1cc2cc(C(=O)c3ccc(Cl)cc3)sc2n1CCN1CCOCC1 [Compound 6, (4-Chlorophenyl)(5-methyl-6-(2-morpholinoethyl)-6H-thieno[2,3-b]pyrrol-2-yl)methanone] | 100 to 1000 | NS (NS means “Not Significant,” which means less than 30% agonist activity when compared to the positive control.) | < 100 |  |  |
| Cc1cc2cc(C(=O)c3cccc(F)c3F)sc2n1CCN1CCOCC1 [Compound 8, (2,3-Difluorophenyl)(5-methyl-6-(2-morpholinoethyl)-6H-thieno[2,3-b]pyrrol-2-yl)methanone] | 100 to 1000 | NS (NS means “Not Significant,” which means less than 30% agonist activity when compared to the positive control.) | 100 to 1000 |  |  |
| Cc1cc2cc(C(=O)c3ccc(Cl)c(Cl)c3)sc2n1CCN1CCOCC1 [Compound 9, (3,4-Dichlorophenyl)(5-methyl-6-(2-morpholinoethyl)-6H-thieno[2,3-b]pyrrol-2-yl)methanone] | 100 to 1000 | NS (NS means “Not Significant,” which means less than 30% agonist activity when compared to the positive control.) | 1000 to 10000 |  |  |
| Cc1cc2cc(C(=O)c3cccc4c3OCC4)sc2n1CCN1CCOCC1 [Compound 11, (2,3-Dihydrobenzofuran-7-yl)(5-methyl-6-(2-morpholinoethyl)-6H-thieno[2,3-b]pyrrol-2-yl)methanone] | 100 to 1000 |  | < 100 | 100 to 1000 |  |
| COc1ccccc1C(=O)c1cc2cc(C)n(CCN3CCOCC3)c2s1 [Compound 13, (2-Methoxyphenyl)(5-methyl-6-(2-morpholinoethyl)-6H-thieno[2,3-b]pyrrol-2-yl)methanone] | < 100 |  | < 100 | 100 to 1000 |  |
| Cc1cc2cc(C(=O)c3ccccc3OC(F)(F)F)sc2n1CCN1CCOCC1 [Compound 15, (5-Methyl-6-(2-morpholinoethyl)-6H-thieno[2,3-b]pyrrol-2-yl)(2-(trifluoromethoxy)phenyl)methanone] | < 100 |  | < 100 | 100 to 1000 |  |
| Cc1cc2cc(C(=O)c3cccnc3Cl)sc2n1CCN1CCOCC1 [Compound 17, (2-Chloropyridin-3-yl)(5-methyl-6-(2-morpholinoethyl)-6H-thieno[2,3-b]pyrrol-2-yl)methanone] | 100 to 1000 | NS (NS means “Not Significant,” which means less than 30% agonist activity when compared to the positive control.) | 100 to 1000 |  |  |
| Cc1cc2cc(C(=O)c3cccc(Cl)c3Cl)sc2n1CCC1CCOCC1 [Compound 18, (2,3-Dichlorophenyl)(5-methyl-6-(2-(tetrahydro-2H-pyran-4-yl)ethyl)-6H-thieno[2,3-b]pyrrol-2-yl)methanone] | < 100 |  | < 100 | 100 to 1000 |  |
| COCCn1c(C)cc2cc(C(=O)c3cccc(Cl)c3Cl)sc21 [Compound 21, (2,3-Dichlorophenyl)(6-(2-methoxyethyl)-5-methyl-6H-thieno[2,3-b]pyrrol-2-yl)methanone] | 100 to 1000 |  | < 100 | 1000 to 10000 |  |
| Cc1cc2cc(C(=O)c3cccc(Cl)c3Cl)sc2n1CCN1CCCCC1 [Compound 23, (2,3-Dichlorophenyl)(5-methyl-6-(2-(piperidin-1-yl)ethyl)-6H-thieno[2,3-b]pyrrol-2-yl)methanone] | < 100 | NS (NS means “Not Significant,” which means less than 30% agonist activity when compared to the positive control.) | < 100 |  |  |
| Cc1cc2cc(C(=O)c3cccc(Cl)c3Cl)sc2n1CC1CCCCN1C (stereo not drawn) [Compound 24, (2,3-Dichlorophenyl)(5-methyl-6((1-methylpiperidin-2-yl)methyl)-6H-thieno[2,3-b]pyrrol-2-yl)methanone] | < 100 | NS (NS means “Not Significant,” which means less than 30% agonist activity when compared to the positive control.) | < 100 |  |  |
| Cc1c(Cl)c2cc(C(=O)c3cccc(Cl)c3Cl)sc2n1CCN1CCOCC1 [Compound 27, (4-chloro-5-methyl-6-(2-morpholinoethyl)-6H-thieno[2,3-b]pyrrol-2-yl)(2,3-dichlorophenyl)methanone] | < 100 |  | < 100 |  | 100 to 1000 |
| Cc1cc2cc(C(=O)c3cccc(Cl)c3Cl)sc2n1CCN1CCCC1 [Compound 28, (2,3-Dichlorophenyl)(5-methyl-6-(2-(pyrrolidin-1-yl)ethyl)-6H-thieno[2,3-b]pyrrol-2-yl)methanone] | < 100 | NS (NS means “Not Significant,” which means less than 30% agonist activity when compared to the positive control.) | < 100 |  |  |
| Cc1cc2cc(C(=O)c3cc(Cl)ccc3Cl)sc2n1CCN1CCOCC1 [Compound 35, (2,5-Dichlorophenyl)(5-methyl-6-(2-morpholinoethyl)-6H-thieno[2,3-b]pyrrol-2-yl)methanone] | < 100 | NS (NS means “Not Significant,” which means less than 30% agonist activity when compared to the positive control.) | < 100 |  |  |
| COCCN(C)CCn1c(C)cc2cc(C(=O)c3ccc(OC)nc3)sc21 [Compound 157] |  | NS (NS means “Not Significant,” which means less than 30% agonist activity when compared to the positive control.) | 1000 to 10000 |  |  |
| COc1ccc(C(=O)c2cc3cc(C)n(CC(OC)OC)c3s2)cn1 [Compound 161, (6-(2,2-dimethoxyethyl)-5-methyl-6H-thieno[2,3-b]pyrrol-2-yl)(6-methoxypyridin-3-yl)methanone] |  | NS (NS means “Not Significant,” which means less than 30% agonist activity when compared to the positive control.) | 1000 to 10000 |  |  |
| Cc1cc2cc(C(=O)c3ccc(O)cc3F)sc2n1CCN1CCOCC1 [Compound 165, (2-fluoro-4-hydroxyphenyl)(5-methyl-6-(2-morpholinoethyl)-6H-thieno[2,3-b]pyrrol-2-yl)methanone] |  |  | 100 to 1000 | 100 to 1000 |  |
